Legend:
[1] = compound: CN1CC[C@H](c2c(O)cc(O)c3c(=O)cc(-c4ccccc4Cl)oc23)[C@H](O)C1 [Flavopiridol]; experiment: GR value, 72 h; higher = faster growth (1 = untreated, <0 = killing);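 note: breast cancer and non-malignant breast epithelial lines, nine half-log doses, viable cells counted by Hoechst and LIVE/DEAD dye imaging versus time-zero plates and DMSO controls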
[2] = compound: C=CC(=O)Nc1ccc(C(=O)Nc2[nH]nc3c2CN(C(=O)N[C@H](CN(C)C)c2ccccc2)C3(C)C)cc1 [YKL-5-124]; experiment: as above
[3] = compound: CCc1cnn2c(NCc3ccc[n+]([O-])c3)cc(N3CCCC[C@H]3CCO)nc12; experiment: as above
[4] = compound: CN(C)C/C=C/C(=O)Nc1ccc(C(=O)N2CCC[C@@H](Nc3ncc(Cl)c(-c4c[nH]c5ccccc45)n3)C2)cc1 [THZ531]; experiment: as above
[5] = compound: CN(C)C(=O)c1cc2cnc(Nc3ccc(N4CCNCC4)cn3)nc2n1C1CCCC1 [LEE011/Ribociclib]; experiment: as above
[6] = compound: CCN1CCN(Cc2ccc(Nc3ncc(F)c(-c4cc(F)c5nc(C)n(C(C)C)c5c4)n3)nc2)CC1; experiment: as above
[7] = compound: CC(=O)c1c(C)c2cnc(Nc3ccc(N4CCNCC4)cn3)nc2n(C2CCCC2)c1=O; experiment: as above
[8] = compound: CN(C)C/C=C/C(=O)Nc1ccc(C(=O)Nc2cccc(Nc3ncc(Cl)c(-c4c[nH]c5ccccc45)n3)c2)cc1 [THZ1]; experiment: as above
[9] = compound: O=C(CCCCCCC(=O)Nc1ccccc1)NO [Vorinostat]
[10] = compound: CC1(CCN(CC1)C2=CN=C(C(=N2)N)C3=C(C(=CC=C3)Cl)Cl)N [SHP099]
[11] = compound: CCc1cnn2c(NCc3ccc[n+]([O-])c3)cc(N3CCCC[C@H]3CCO)nc12
[12] = compound: Nc1cc(C(F)(F)F)c(-c2cc(N3CCOCC3)nc(N3CCOCC3)n2)cn1 [Buparlisib/NVP-BKM120]
[13] = compound: CC(=O)O[C@H]1C(=O)[C@@]2(C)[C@H]([C@H](OC(=O)c3ccccc3)[C@]3(O)C[C@H](OC(=O)[C@H](O)[C@@H](NC(=O)c4ccccc4)c4ccccc4)C(C)=C1C3(C)C)[C@]1(OC(C)=O)CO[C@@H]1C[C@@H]2O [Paclitaxel]
[14] = compound: CC(=O)c1c(C)c2cnc(Nc3ccc(N4CCN(CCOCCOCCOCCNC(=O)COc5cccc6c5C(=O)N(C5CCC(=O)NC5=O)C6=O)CC4)cn3)nc2n(C2CCCC2)c1=O [BSJ-03-123]
[15] = compound: CCN1CCN(Cc2ccc(Nc3ncc(F)c(-c4cc(F)c5nc(C)n(C(C)C)c5c4)n3)nc2)CC1
[16] = compound: COc1cc2nccc(Oc3ccc(NC(=O)C4(C(=O)Nc5ccc(F)cc5)CC4)cc3)c2cc1OC [Cabozantinib]
[17] = compound: NC1(C(=O)N[C@@H](CCO)c2ccc(Cl)cc2)CCN(c2nc[nH]c3nccc2-3)CC1 [AZD5363]
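Throughout, for GR50, 72 h: breast cancer and non-malignant breast epithelial cell lines, Deep Dye Drop or Dye Drop imaging, nine half-log doses, GR normalized to time-zero plates and DMSO-only controls.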

184A1
GR value ([1]; 0.0001 µM): 1.04 GR
GR value ([1]; 0.0003162 µM): 1 GR
GR value ([1]; 0.001 µM): 1.01 GR
GR value ([1]; 0.003162 µM): 0.931 GR
GR value ([1]; 0.01 µM): 0.838 GR
GR value ([1]; 0.03162 µM): 0.614 GR
GR value ([1]; 0.1 µM): 0.0558 GR
GR value ([1]; 0.3162 µM): -0.172 GR
GR value ([1]; 1 µM): -0.307 GR
GR value ([2]; 0.001 µM): 0.287 GR
GR value ([2]; 0.003162 µM): 0.204 GR
GR value ([2]; 0.01 µM): 0.116 GR
GR value ([2]; 0.03162 µM): 0.07 GR
GR value ([2]; 0.1 µM): 0.0439 GR
GR value ([2]; 0.3162 µM): 0.0314 GR
GR value ([2]; 1 µM): 0.0278 GR
GR value ([2]; 3.162 µM): -0.0126 GR
GR value ([2]; 10 µM): -0.0798 GR
GR value ([3]; 0.0001 µM): 1.04 GR
GR value ([3]; 0.0003162 µM): 1.05 GR
GR value ([3]; 0.001 µM): 1.04 GR
GR value ([3]; 0.003162 µM): 0.865 GR
GR value ([3]; 0.01 µM): 0.401 GR
GR value ([3]; 0.03162 µM): -0.275 GR
GR value ([3]; 0.1 µM): -0.222 GR
GR value ([3]; 0.3162 µM): -0.306 GR
GR value ([3]; 1 µM): -0.346 GR
GR value ([4]; 0.0001 µM): 1.01 GR
GR value ([4]; 0.0003162 µM): 0.964 GR
GR value ([4]; 0.001 µM): 0.898 GR
GR value ([4]; 0.003162 µM): 0.954 GR
GR value ([4]; 0.01 µM): 0.931 GR
GR value ([4]; 0.03162 µM): 0.968 GR
GR value ([4]; 0.1 µM): 0.814 GR
GR value ([4]; 0.3162 µM): 0.438 GR
GR value ([4]; 1 µM): -0.377 GR
GR value ([5]; 0.001 µM): 0.846 GR
GR value ([5]; 0.003162 µM): 0.792 GR
GR value ([5]; 0.01 µM): 0.664 GR
GR value ([5]; 0.03162 µM): 0.633 GR
GR value ([5]; 0.1 µM): 0.549 GR
GR value ([5]; 0.3162 µM): 0.552 GR
GR value ([5]; 1 µM): 0.446 GR
GR value ([5]; 3.162 µM): 0.306 GR
GR value ([5]; 10 µM): 0.11 GR
GR value ([6]; 0.001 µM): 0.939 GR
GR value ([6]; 0.003162 µM): 0.858 GR
GR value ([6]; 0.01 µM): 0.69 GR
GR value ([6]; 0.03162 µM): 0.413 GR
GR value ([6]; 0.1 µM): 0.267 GR
GR value ([6]; 0.3162 µM): 0.13 GR
GR value ([6]; 1 µM): 0.0708 GR
GR value ([6]; 3.162 µM): 0.0774 GR
GR value ([6]; 10 µM): -0.105 GR
GR value ([7]; 0.0003162 µM): 1.04 GR
GR value ([7]; 0.001 µM): 0.968 GR
GR value ([7]; 0.003162 µM): 0.963 GR
GR value ([7]; 0.01 µM): 0.848 GR
GR value ([7]; 0.03162 µM): 0.664 GR
GR value ([7]; 0.1 µM): 0.465 GR
GR value ([7]; 0.3162 µM): 0.324 GR
GR value ([7]; 1 µM): 0.191 GR
GR value ([7]; 3.162 µM): 0.128 GR
GR value ([8]; 0.0001 µM): 1.02 GR
GR value ([8]; 0.0003162 µM): 1 GR
GR value ([8]; 0.001 µM): 1.01 GR
GR value ([8]; 0.003162 µM): 0.822 GR
GR value ([8]; 0.01 µM): 0.39 GR
GR value ([8]; 0.03162 µM): -0.094 GR
GR value ([8]; 0.1 µM): -0.2 GR
GR value ([8]; 0.3162 µM): -0.209 GR
GR50, 72 h [9]: 2.52 µM
GR50, 72 h [10]: 6.56 µM
GR50, 72 h [11]: 0.0086 µM
GR50, 72 h [12]: 1.52 µM
GR50, 72 h [13]: 0.00313 µM
GR50, 72 h [14]: 0.00892 µM
GR50, 72 h [15]: 0.0256 µM
GR50, 72 h [16]: 8.43 µM
GR50, 72 h [17]: > 10 µM

AU565
GR value ([1]; 0.0001 µM): 1.11 GR
GR value ([1]; 0.0003162 µM): 1.02 GR
GR value ([1]; 0.001 µM): 0.906 GR
GR value ([1]; 0.003162 µM): 0.852 GR
GR value ([1]; 0.01 µM): 1 GR
GR value ([1]; 0.03162 µM): 0.858 GR
GR value ([1]; 0.1 µM): 0.472 GR
GR value ([1]; 0.3162 µM): -0.198 GR
GR value ([1]; 1 µM): -0.69 GR
GR value ([2]; 0.001 µM): 0.305 GR
GR value ([2]; 0.003162 µM): 0.28 GR
GR value ([2]; 0.01 µM): 0.128 GR
GR value ([2]; 0.03162 µM): 0.0651 GR
GR value ([2]; 0.1 µM): -0.0212 GR
GR value ([2]; 0.3162 µM): -0.0588 GR
GR value ([2]; 1 µM): -0.111 GR
GR value ([2]; 3.162 µM): -0.172 GR
GR value ([2]; 10 µM): -0.563 GR
GR value ([3]; 0.0001 µM): 0.954 GR
GR value ([3]; 0.0003162 µM): 0.978 GR
GR value ([3]; 0.001 µM): 0.974 GR
GR value ([3]; 0.003162 µM): 0.928 GR
GR value ([3]; 0.01 µM): 0.19 GR
GR value ([3]; 0.03162 µM): -0.568 GR
GR value ([3]; 0.1 µM): -0.734 GR
GR value ([3]; 0.3162 µM): -0.746 GR
GR value ([3]; 1 µM): -0.767 GR
GR value ([4]; 0.0001 µM): 0.925 GR
GR value ([4]; 0.0003162 µM): 0.936 GR
GR value ([4]; 0.001 µM): 0.948 GR
GR value ([4]; 0.003162 µM): 0.994 GR
GR value ([4]; 0.01 µM): 1.05 GR
GR value ([4]; 0.03162 µM): 0.786 GR
GR value ([4]; 0.1 µM): 0.0998 GR
GR value ([4]; 0.3162 µM): -0.343 GR
GR value ([4]; 1 µM): -0.521 GR
GR value ([5]; 0.001 µM): 0.82 GR
GR value ([5]; 0.003162 µM): 0.739 GR
GR value ([5]; 0.01 µM): 0.645 GR
GR value ([5]; 0.03162 µM): 0.742 GR
GR value ([5]; 0.1 µM): 0.569 GR
GR value ([5]; 0.3162 µM): 0.546 GR
GR value ([5]; 1 µM): 0.487 GR
GR value ([5]; 3.162 µM): 0.425 GR
GR value ([5]; 10 µM): 0.227 GR
GR value ([6]; 0.001 µM): 0.876 GR
GR value ([6]; 0.003162 µM): 0.791 GR
GR value ([6]; 0.01 µM): 0.605 GR
GR value ([6]; 0.03162 µM): 0.382 GR
GR value ([6]; 0.1 µM): 0.268 GR
GR value ([6]; 0.3162 µM): 0.223 GR
GR value ([6]; 1 µM): 0.114 GR
GR value ([6]; 3.162 µM): 0.0465 GR
GR value ([6]; 10 µM): -0.328 GR
GR value ([7]; 0.0003162 µM): 1.04 GR
GR value ([7]; 0.001 µM): 1.05 GR
GR value ([7]; 0.003162 µM): 1.01 GR
GR value ([7]; 0.01 µM): 0.919 GR
GR value ([7]; 0.03162 µM): 0.73 GR
GR value ([7]; 0.1 µM): 0.579 GR
GR value ([7]; 0.3162 µM): 0.39 GR
GR value ([7]; 1 µM): 0.301 GR
GR value ([7]; 3.162 µM): 0.154 GR
GR value ([8]; 0.0001 µM): 0.903 GR
GR value ([8]; 0.0003162 µM): 1.02 GR
GR value ([8]; 0.001 µM): 0.972 GR
GR value ([8]; 0.003162 µM): 0.84 GR
GR value ([8]; 0.01 µM): 0.797 GR
GR value ([8]; 0.03162 µM): 0.225 GR
GR value ([8]; 0.1 µM): -0.325 GR
GR value ([8]; 0.3162 µM): -0.547 GR
GR value ([8]; 1 µM): -0.653 GR
GR50, 72 h [9]: 1.07 µM
GR50, 72 h [10]: > 10 µM
GR50, 72 h [11]: 0.00743 µM
GR50, 72 h [12]: 0.106 µM
GR50, 72 h [13]: 0.00163 µM
GR50, 72 h [14]: 1.21 µM
GR50, 72 h [15]: 0.0308 µM
GR50, 72 h [16]: 9.13 µM
GR50, 72 h [17]: 5.83 µM
